{"source": "patent US6258845A", "about": "(priority 1999, dated 2001)", "key": {"[1]": {"tested_on": "ODC and polyamine contents", "experiment": "DFMO effect on colorectal and buccal mucosa ODC and polyamine contents", "assay_type": "in vivo, human", "from_the_text": "When the inventors started these studies, their hope was that the effects of polyamine syntheses inhibitors in easily accessible tissues, such as buccal mucosa in the oral cavity, would be representative of inhibitor effects in less accessible tissue of the gastrointestinal tract. To test this hypothesis, the inventors measured ODC activity and polyamine contents in buccal mucosa isolated from normal human volunteers. […] From these studies, the inventors concluded that the buccal mucosal was not a useful surrogate tissue in which to measure the effects of polyamine synthesis inhibitor on other GI tissues."}, "[2]": {"tested_on": "Ki-ras clone #60 cells", "experiment": "Clonogenic assay (colony-forming efficiency), Ki-ras clone 60", "assay_type": "cell-based, human", "settings": "Homo sapiens, Caco-2, 24 h; read-out: decrease in cell survival compared to untreated transfectants"}, "[3]": {"tested_on": "Caco-2 parental cells, Ki-ras clone #60 and Ki-ras clone #66", "experiment": "Viable cell number (trypan blue dye exclusion), growth of Caco-2 parental and Ki-ras transfected cells", "assay_type": "cell-based, human"}, "[4]": {"tested_on": "Caco-2 parental cells", "settings": "long-term survival, Caco-2 cells"}, "[5]": {"tested_on": "ornithine decarboxylase (ODC)", "settings": "cited from earlier work"}, "[6]": {"tested_on": "tissue polyamine contents (Barrett's lesion, normal squamous esophagus, gastric tissue, small bowel)", "experiment": "DFMO in Barrett's esophagus patients, tissue polyamine contents", "assay_type": "in vivo, human", "settings": "1.5 gm/m^2 per day, 12 weeks", "from_the_text": "ODC activities and polyamine contents varied in each site analyzed. The rank orders were Barrett's>small bowel~normal esophagus>gastric tissue for ODC activities, and small bowel≥Barrett's~normal esophagus>gastric tissue for putrescine contents."}, "[7]": {"tested_on": "human cancer", "settings": "cited from earlier work"}, "[8]": {"tested_on": "Ki-ras clones 60 and 66", "experiment": "cells", "settings": "Homo sapiens"}, "[9]": {"tested_on": "polyamine levels", "assay_type": "in vivo, human", "from_the_text": "Based on this information a dose of 0.2 Gm/M^2 /day will be used for the current trial."}, "[10]": {"tested_on": "hearing", "experiment": "DFMO effects on hearing / ototoxicity in patients", "settings": "0.25 g/m^2 /d"}, "[11]": {"tested_on": "Ki-ras clone #60", "experiment": "Induction of apoptosis (light microscopy) in Ki-ras clone 60", "assay_type": "cell-based, human", "protocol": "(§1) FIG. 3. […] Apoptosis was determined by light microscopy.\n(§2) FIG. 8. […] Cells were grown over a period of 6 days. Cells were harvested at various days (0, 2, 4 and 6 days), spun onto slides and stained. Apoptosis was determined by light microscopy. Percentage of apoptotic cells was calculated as the number of apoptotic cells out of the total cells counted times 100. At least 500 cells were counted for each sample.\n(§3) Cells were grown over a period of 6 days. Cells were harvested at various days (0, 2, 4 and 6 days), spun onto slides and stained. Apoptosis was determined by light microscopy. Percentage of apoptotic cells was calculated as the number of apoptotic cells out of the total cells counted times 100."}, "[12]": {"tested_on": "tumors harboring Ki-ras mutations in AOM-treated rats", "settings": "cited from earlier work"}, "[13]": {"tested_on": "hearing", "settings": "cited from earlier work"}, "[14]": {"tested_on": "MCA sarcoma", "settings": "in vivo; cited from earlier work"}, "[15]": {"tested_on": "Caco-2 parental cells", "experiment": "Induction of apoptosis (light microscopy) in Caco-2 parental cells", "assay_type": "cell-based, human", "protocol": "as §1, §2, §3"}, "[16]": {"tested_on": "platelet counts", "settings": "continuous infusion for 12 days; cited from earlier work"}, "[17]": {"tested_on": "tumor putrescine levels", "settings": "DFMO infusion, cited from earlier work"}, "[18]": {"tested_on": "intracellular putrescine and spermidine", "settings": "cited from earlier work"}, "[19]": {"tested_on": "carcinogenesis in rodent/animal models", "settings": "in vivo; cited from earlier work"}, "[20]": {"settings": "human, in vivo"}, "[21]": {"tested_on": "colorectal tissue polyamine contents", "protocol": "All biopsies were performed between 9:00 a.m. and noon to avoid possible effects of diurnal variation in laboratory endpoints."}, "[22]": {"tested_on": "Caco-2 parental cells", "experiment": "cells", "settings": "Homo sapiens, Caco-2, 24 h, read-out: cell survival"}, "[23]": {"tested_on": "prostaglandin E2 (PGE2) levels in flat mucosa", "experiment": "Ibuprofen one month trial, PGE2 levels in flat mucosa", "settings": "300 mg/day"}, "[24]": {"tested_on": "AOM-treated rat model of colon carcinogenesis", "settings": "in vivo; cited from earlier work"}, "[25]": {"tested_on": "rat enterocytes", "settings": "cited from earlier work"}, "[26]": {"settings": "human, in vivo, po; cited from earlier work"}, "[27]": {"tested_on": "Caco-2 and clone 60 cells", "experiment": "Clonogenic assay (colony-forming efficiency), Caco-2 and clone 60 cells", "assay_type": "cell-based, human"}, "[28]": {"tested_on": "Ki-ras clone #66", "experiment": "Induction of apoptosis (light microscopy) in Ki-ras clone 66", "settings": "120 μM sulindac sulfide; printed 'clone 6'"}, "[29]": {"tested_on": "Ki-ras transfected Caco-2 cells", "experiment": "Induction of apoptosis in Ki-ras transfected versus parental Caco-2 cells", "assay_type": "cell-based, human", "settings": "120 μM sulfide, 600 μM sulfone", "protocol": "as §1"}, "[30]": {"settings": "listed as α-Difluoromethylornithine (DFMO)"}}, "note": "“Also recorded” adds a separate entry of the source. Like-named read-outs stand apart in the source and are kept apart here."}
{"compound": "NCCCC(N)(C(=O)O)C(F)F", "note": "(racemic) [DFMO, 2(Difluoromethyl)-DL-ornithine]", "values": [{"measurement": "buccal mucosal ODC and polyamine contents", "setting": "[1]; buccal mucosa", "result": "unaffected"}, {"measurement": "polyamine contents in colorectal tissue biopsies", "setting": "[1]; colorectal tissue", "result": "reduced polyamine contents in colorectal tissue biopsies"}, {"measurement": "cytotoxicity at 5000 µM", "setting": "[2]", "result": 60, "unit": "%"}, {"measurement": "trypan blue dye exclusion", "setting": "[3]; 5 mM DFMO continuously, short-term growth", "result": "exclusion of trypan blue dye in either the Ki-ras cells or parentals was unaffected"}, {"measurement": "effect of DFMO on toxicity of the sulindac metabolites", "setting": "[4]", "result": "did not increase the toxicity of the sulindac metabolites in long-term survival studies"}, {"measurement": "inhibition of ODC", "setting": "[5]", "result": "powerful inhibitor of ODC, both in vitro and in vivo"}, {"measurement": "inhibition of ODC", "setting": "[5]; [30]", "result": "enzyme-activated, irreversible inhibitor of ornithine decarboxylase (ODC)"}, {"measurement": "spermidine contents", "setting": "[6]; Barrett's lesions and normal squamous esophageal tissue", "result": "suppressed by systemic DFMO treatment and recovered to untreated control values when DFMO therapy was discontinued"}, {"measurement": "spermidine and spermine levels", "setting": "[6]; gastric tissue and small bowel", "result": "did not affect the levels of either of these two amines in gastric tissue and small bowel"}, {"measurement": "activity in chemotherapy trials", "setting": "[7]; human cancer", "result": "not to be an active cytotoxic agent"}, {"measurement": "activity in malignant brain tumors", "setting": "[7]; malignant brain tumors", "result": "moderate activity"}, {"measurement": "IC50", "setting": "[8]; 24 h, read-out: concentration at 50% cell survival", "result": 500, "unit": "µM"}, {"measurement": "minimal effective concentration", "setting": "[8]; 24 h, read-out: lowest concentration (selectively) toxic to cells with an activated Ki-ras", "result": 50, "unit": "µM"}, {"measurement": "viability at 5000 µM", "setting": "[8]; Caco-2, 24 h, read-out: cell survival, of controls", "result": "20 to 40", "unit": "%"}, {"measurement": "inhibition at 5000 µM", "setting": "[8]; Caco-2, 24 h, read-out: reduction of colony-forming efficiency of the Ki-ras transfectants", "result": 40, "unit": "%"}, {"measurement": "lowest dose that may produce a persistent effect on polyamine levels", "setting": "[9]; 12 months", "result": 0.10, "unit": "Gm/M^2 /day"}, {"measurement": "audiotoxicity", "setting": "[9]; in vivo", "result": "no audiotoxicity was evident"}, {"measurement": "patients coming off study", "setting": "[9]; in vivo", "result": "came off study more frequently"}, {"measurement": "side-effects after one year", "setting": "[9]; in vivo", "result": "equivalent to placebo"}, {"measurement": "expected onset of hearing loss", "setting": "[10]", "result": "> 800", "unit": "days"}, {"measurement": "percentage of apoptotic cells", "setting": "[11]; day 6, 5 mM DFMO, with or without sulindac sulfone (so in the source)", "result": 15, "unit": "%"}, {"measurement": "amount of biochemically active p21 ras in existing tumors", "setting": "[12]", "result": "reduced the amount of biochemically active p21 ras in existing tumors"}, {"measurement": "tumors harboring Ki-ras mutations", "setting": "[12]; reduced from 90%", "result": 36, "unit": "%"}, {"measurement": "effects on hearing", "setting": "[13]; 0.4gr/M^2 /day for up to one year", "result": "not observed"}, {"measurement": "audiometric changes", "setting": "[13]; about 6 months at 0.50 g/m^2 /d (total dose 90 gm)", "result": "no audiometric changes"}, {"measurement": "patients with hearing losses", "setting": "[13]; cumulative doses above 250 g/m^2", "result": "up to 75 % of patients"}, {"measurement": "patients with demonstrable hearing deficit", "setting": "[13]; cumulative doses below 150 g/m^2", "result": "less than 10 % of the patients"}, {"measurement": "effects on hearing / hearing loss, reversibility", "setting": "[13]; other clinical trials", "result": "hearing loss, which was reversible after the drug treatment was discontinued; also recorded: totally reversible upon drug discontinuation; also recorded: effects on hearing at high doses of 4 gr/M^2 /day that resolve when it is discontinued"}, {"measurement": "growth of MCA sarcoma", "setting": "[14]", "result": "reduces the growth rate of an MCA sarcoma but does not produce tumor regression"}, {"measurement": "increase in apoptosis", "setting": "[15]; 5 mM DFMO, with or without sulindac sulfone (so in the source), parental Caco-2", "result": "only a modest increase in apoptosis"}, {"measurement": "platelet counts", "setting": "[16]", "result": "significantly reduces platelet counts compared with controls"}, {"measurement": "decrease in tumor putrescine levels", "setting": "[17]; rat-tumor model", "result": 90, "unit": "%"}, {"measurement": "peripheral platelet counts", "setting": "[17]", "result": "without suppressing peripheral platelet counts"}, {"measurement": "uptake of exogenous putrescine", "setting": "[18]; cells treated in vivo", "result": "significantly increase their uptake of exogenous putrescine"}, {"measurement": "intracellular polyamine concentrations", "setting": "[18]", "result": "decrease in putrescine and spermidine concentrations"}, {"measurement": "intracellular polyamine concentrations", "setting": "[18]; [30]", "result": "depletion in the intracellular concentrations of putrescine and its derivative, spermidine"}, {"measurement": "chemoprevention / inhibition of tumor development in animal models", "setting": "[19]", "result": "potent inhibitor of carcinogenesis; also recorded: inhibits the development of many cancers including carcinogen-induced colon polyps and cancer; also recorded: inhibits colon carcinogenesis in carcinogen-treated rodents"}, {"measurement": "wound healing problems", "setting": "[20]", "result": "problems with wound healing have not been experienced"}, {"measurement": "lowest dose safe and effective in reducing colorectal mucosal polyamine contents", "setting": "[21]; daily orally, 28 days", "result": 0.25, "unit": "gm/m^2"}, {"measurement": "lowest dose with evident effects on polyamine metabolism", "setting": "[21]; phase IIa, one month", "result": 0.2, "unit": "Gm/M^2 /day"}, {"measurement": "lowest dose decreasing putrescine content", "setting": "[21]; single daily oral doses, 4 wk, colorectal biopsies", "result": 0.25, "unit": "gm/m^2"}, {"measurement": "viability at 5000 µM", "setting": "[22]", "result": "~100", "unit": "%"}]}
{"compound": "CC(C)Cc1ccc(C(C)C(=O)O)cc1", "note": "(centres unmarked) [ibuprofen]", "values": [{"measurement": "PGE2 levels in flat mucosa", "setting": "[23]", "result": "significant decrease"}, {"measurement": "chemoprevention / inhibition of tumor development in animal models", "setting": "[19]", "result": "less effective than other NSAIDs"}, {"measurement": "inhibition of colon carcinogenesis in AOM-treated rat model", "setting": "[24]", "result": "effectively inhibit colon carcinogenesis"}]}
{"compound": "CSc1ccc(/C=C2/C(C)=C(CC(=O)O)c3cc(F)ccc32)cc1", "note": "[sulindac sulfide]", "values": [{"measurement": "resistance to apoptosis on Ki-ras activation", "setting": "[25]", "result": "confers resistance to apoptosis"}, {"measurement": "Ki-ras selective toxicity / Ki-ras-specific effect on growth", "setting": "[3]; 120 μM sulindac sulfide or 600 μM sulindac sulfone", "result": "nor did sulindac sulfide or sulfone exert a Ki-ras-specific effect on growth"}, {"measurement": "number of viable cells", "setting": "[3]; 120 μM sulindac sulfide, 10-day growth", "result": "remained relatively unchanged throughout the 10-day growth period"}, {"measurement": "mean half-life", "setting": "[26]", "result": 16.4, "unit": "h"}, {"measurement": "survival normalized to like DFMO-treated controls", "setting": "[27]; 5 mM DFMO, increasing concentrations of sulindac sulfide", "result": "the survival rates of the DFMO-treated cells mirrored those of the non-DFMO-treated cells"}, {"measurement": "IC50", "setting": "[27]; Homo sapiens, Caco-2, 24 h, read-out: 50% decrease in cell number", "result": "~225", "unit": "µM"}, {"measurement": "effect of Ki-ras activation on viability / colony-forming efficiency after sulindac metabolite", "setting": "[27]; increasing concentrations, 24 h", "result": "did not reveal any differences in colony-forming efficiency between Ki-ras transfectants and parental Caco-2 cells"}, {"measurement": "time of peak apoptosis", "setting": "[11]; 120 μM sulindac sulfide", "result": 4, "unit": "days"}, {"measurement": "time of peak apoptosis", "setting": "[28]", "result": 6, "unit": "days"}, {"measurement": "time of peak apoptosis", "setting": "[15]; 120 μM sulindac sulfide, Caco-2 parental", "result": 8, "unit": "days"}, {"measurement": "onset of apoptosis in Ki-ras transfected cells compared with parental cells", "setting": "[29]", "result": "accelerate the onset of apoptosis; also recorded: occurred several days earlier in Ki-ras transfected cells than in parental cells"}]}
